Measured values from patent publication US20250367084A1, “Micellar Composition” (Phytoceutical Limited, priority 2022, published 2025).

Assays:
[1] = cited from earlier work
[2] = system: adult human dermal fibroblast (HDFa) cells; assay: Cytotoxicity of retinol (Presto Blue / WST-1); type: cell-based; conditions: 24 h exposure
Description: The cytotoxicity of retinol was determined.
Experiment 1: A solution of retinol (20 mg/mL) in ethanol (absolute) was prepared. The solution was diluted to 2 mg/mL, forming a light yellow emulsion. The emulsion was diluted in optiMem to provide concentrations of 5, 2.5, 1.25, 0.625 and 0.31 μg/mL retinol. Untreated and detergent controls were included for comparison. Using a Presto Blue assay, adult human dermal fibroblast (HDFa) cells (5 k per well) were exposed to the solutions for 24 h.
Experiment 2: A solution of retinol (20 mg/mL) in 1,2-propanediol was prepared. The solution was diluted to 2 mg/mL, forming an off-white emulsion. The emulsion was diluted in optiMem to provide concentrations of 10, 5, 2.5, 1.25, 0.625 and 0.31 μg/mL retinol. Untreated and detergent controls were included for comparison. Using a WST-1 probe, HDFa cells (5 k per well) were exposed to the solutions for 24 h.
Experiment 3: A solution of retinol (20 mg/mL) in ethanol (absolute) was prepared. The solution was diluted to 2 mg/mL, forming an light yellow emulsion. The emulsion was diluted in optiMem to provide concentrations of 10, 5, 2.5, 1.25, 0.625 and 0.31 μg/mL retinol. Untreated and detergent controls were included for comparison. Using a WST-1 probe, HDFa cells (5 k per well) were exposed to the solutions for 24 h.

| Compound | log P [1] | concentration at which retinol is cytotoxic to the HDFa cell line ([2]; 5 k cells per well) | cytotoxicity at concentration below 10 μg/mL ([2]; concentration below 10 μg/mL) |
| --- | --- | --- | --- |
| C=C(C)[C@@H]1CCC(C)=C[C@H]1c1c(O)cc(CCCCC)cc1O [CBD, cannabidiol] | ~6.3 | – | – |
| CC1=C(/C=C/C(C)=C/C=C/C(C)=C/CO)C(C)(C)CCC1 [retinol, Retinol] | – | ≥ 10000 ng/mL | only little, if any, cytotoxicity |
